This passage reports T/C results from PubChem BioAssay AID330 (DTP/NCI, 2004).

Several values for one entry are separate records, joined by “and”; a condition that tells them apart may be missing. Equal entries are not always repeated. Toxic doses and inconclusive results are not listed.

The test system of the experiment is P388 leukemia ip, CD2F1 mice, survival T/C. The experiment can be described thus: NCI In Vivo Anticancer Drug Screen. Data for tumor model P388 Leukemia (intraperitoneal) in CD2F1 (CDF1) mice. The settings on record: endpoint: median survival time, higher = longer survival. Summed up: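 Mice carrying the transplanted tumor received test compound or vehicle. Survival was recorded in each group, and the value is the treated-group measurement divided by that of the vehicle-treated control group.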

Setting [1] is: dose: 6.25 mg/kg/injection, schedule: Q01DX009 (ip), vehicle: saline.
Where [2] appears, read: dose: 12.5 mg/kg/injection, schedule: Q01DX009 (ip), vehicle: saline.
Setting [3] is: dose: 25.0 mg/kg/injection, schedule: Q01DX009 (ip), vehicle: saline.
The mark [4] stands for this setting: dose: 12.5 mg/kg/injection, schedule: Q01DX009 (ip), vehicle: saline with Tween-80.
The mark [5] stands for this setting: dose: 25.0 mg/kg/injection, schedule: Q01DX009 (ip), vehicle: saline with Tween-80.
Where [6] appears, read: dose: 50.0 mg/kg/injection, schedule: Q01DX009 (ip), vehicle: saline with Tween-80.
The mark [7] stands for this setting: dose: 25.0 mg/kg/injection, schedule: Q01DX005 (ip), vehicle: Klucel (hydroxypropylcellulose) (HPC).
[8] abbreviates: dose: 50.0 mg/kg/injection, schedule: Q01DX005 (ip), vehicle: Klucel (hydroxypropylcellulose) (HPC).
Setting [9] is: dose: 100.0 mg/kg/injection, schedule: Q01DX009 (ip), vehicle: saline with Tween-80.
Setting [10] is: dose: 100.0 mg/kg/injection, schedule: Q01DX005 (ip), vehicle: Klucel (hydroxypropylcellulose) (HPC).
[11] abbreviates: dose: 50.0 mg/kg/injection, schedule: Q01DX009 (ip), vehicle: saline.
[12] abbreviates: dose: 100.0 mg/kg/injection, schedule: Q01DX009 (ip), vehicle: saline.

Consider `Oc1cc(CN2CCCCC2)c(O)cc1CN1CCCCC1`, for which the T/C is 106 % of control (dose: 3.12 mg/kg/injection, schedule: Q01DX009 (ip), vehicle: saline); 106 % of control under setting [1]; 98 % of control under setting [2]; 104 % of control under setting [3].
As to `O=C(Nc1ccc(Cl)cc1)OCC1C2C=CC(C2)C1CO` (stereo unspecified), the T/C by setting is: (dose: 100.0 mg/kg/injection, schedule: Q04DX003 (ip), vehicle: Klucel (hydroxypropylcellulose) (HPC)) 101 % of control; (dose: 200.0 mg/kg/injection, schedule: Q04DX003 (ip), vehicle: Klucel (hydroxypropylcellulose) (HPC)) 95 % of control; (dose: 400.0 mg/kg/injection, schedule: Q04DX003 (ip), vehicle: Klucel (hydroxypropylcellulose) (HPC)) 104 % of control.
As for `CN(N=O)C(=O)N[C@@H](C=O)[C@@H](O)[C@H](O)[C@H](O)CO`, the T/C (dose: 31.25 mg/kg/injection, schedule: Q01DX001 (ip), vehicle: other) was 105 % of control and 106 % of control; the T/C (dose: 62.5 mg/kg/injection, schedule: Q01DX001 (ip), vehicle: other) is 105 % of control and 109 % of control; the T/C (dose: 80.0 mg/kg/injection, schedule: Q04DX003 (ip), vehicle: citric acid) was 110 % of control; the T/C (dose: 80.0 mg/kg/injection, schedule: Q04DX003 (ip), vehicle: other) was 108 % of control; the T/C (dose: 120.0 mg/kg/injection, schedule: Q04DX003 (ip), vehicle: other) was 107 % of control and 114 % of control; the T/C (dose: 125.0 mg/kg/injection, schedule: Q01DX001 (ip), vehicle: other) was 111 % of control and 117 % of control. Also, the T/C by setting is: (dose: 180.0 mg/kg/injection, schedule: Q04DX003 (ip), vehicle: citric acid) 119 % of control; (dose: 180.0 mg/kg/injection, schedule: Q04DX003 (ip), vehicle: other) 118 % of control and 122 % of control; (dose: 240.0 mg/kg/injection, schedule: Q04DX003 (ip), vehicle: other) 112 % of control and 120 % of control; (dose: 500.0 mg/kg/injection, schedule: Q01DX001 (ip), vehicle: other) 90 % of control.
For `O=C(O/N=C1\C2CCC(C2)C1Cl)c1ccc([N+](=O)[O-])cc1` (stereo unspecified), the T/C is 118 % of control under setting [4], 122 % of control under setting [5] and 104 % of control under setting [6].
For the compound `CSCS(=O)CC(C)C` (stereo unspecified), the T/C reads like this: (dose: 50.0 mg/kg/injection, schedule: Q01DX005 (ip), vehicle: water) 104 % of control; (dose: 100.0 mg/kg/injection, schedule: Q01DX005 (ip), vehicle: water) 102 % of control; (dose: 200.0 mg/kg/injection, schedule: Q01DX005 (ip), vehicle: water) 105 % of control.
As for `CC(O)CC1C=CCC(CC(O)c2ccccc2)N1C` (stereo unspecified), the T/C is 102 % of control (dose: 12.5 mg/kg/injection, schedule: Q01DX005 (ip), vehicle: Klucel (hydroxypropylcellulose) (HPC)); 100 % of control under setting [7]; 105 % of control under setting [8].
On to `C=C1CC2(CC3CCC2(C)C3(C)C)OC1=O` (stereo unspecified), for which the T/C is 98 % of control (dose: 100.0 mg/kg/injection, schedule: Q01DX001 (ip), vehicle: saline); 99 % of control (dose: 200.0 mg/kg/injection, schedule: Q01DX001 (ip), vehicle: saline); 99 % of control (dose: 400.0 mg/kg/injection, schedule: Q01DX001 (ip), vehicle: saline).
For `Clc1cccc2c(-c3ccccc3)c3cccc(Cl)c3cc12`, the T/C runs as follows: under setting [6], 101 % of control; under setting [9], 97 % of control; (dose: 200.0 mg/kg/injection, schedule: Q01DX009 (ip), vehicle: saline with Tween-80) 96 % of control.
Regarding `CC(=O)OCC#CCOC(C)=O`, the T/C was 100 % of control (dose: 12.5 mg/kg/injection, schedule: Q01DX009 (ip), vehicle: saline sonified); 100 % of control (dose: 25.0 mg/kg/injection, schedule: Q01DX009 (ip), vehicle: saline sonified); 100 % of control (dose: 50.0 mg/kg/injection, schedule: Q01DX009 (ip), vehicle: saline sonified).
Regarding `C=C1CCC2C(C)(CO)C(O)CCC2(C)C1C/C=C1\C(=O)OCC1O` (stereo unspecified), the T/C was 109 % of control under setting [7]; 108 % of control under setting [8]; 114 % of control under setting [10]; 117 % of control (dose: 200.0 mg/kg/injection, schedule: Q01DX005 (ip), vehicle: Klucel (hydroxypropylcellulose) (HPC)).
Turning to `CCC1CN2CCC3(C(=O)Nc4ccccc43)C2CC1/C(=C/OC)C(=O)OC` (stereo unspecified), the T/C runs as follows: under setting [1], 102 % of control; under setting [2], 100 % of control; under setting [3], 102 % of control; under setting [6], 100 % of control; under setting [11], 103 % of control.
For `COc1ccc(S(=O)(=O)c2coc3ccccc3c2=O)cc1`, the T/C (dose: 60.0 mg/kg/injection, schedule: Q01DX005 (ip), vehicle: saline with Tween-80) was 110 % of control; the T/C (dose: 120.0 mg/kg/injection, schedule: Q01DX005 (ip), vehicle: saline with Tween-80) was 103 % of control; the T/C (dose: 240.0 mg/kg/injection, schedule: Q01DX005 (ip), vehicle: saline with Tween-80) is 96 % of control.
Take `COc1cc2ccc3c(c2cc1OC)N(C)C(OC)c1cc2c(cc1-3)OCO2` (stereo unspecified): the T/C (dose: 10.0 mg/kg/injection, schedule: Q01DX009 (ip), vehicle: Klucel (hydroxypropylcellulose) (HPC)) was 153 % of control; the T/C (dose: 40.0 mg/kg/injection, schedule: Q01DX009 (ip), vehicle: Klucel (hydroxypropylcellulose) (HPC)) is 173 % of control; the T/C (dose: 80.0 mg/kg/injection, schedule: Q01DX009 (ip), vehicle: Klucel (hydroxypropylcellulose) (HPC)) was 110 % of control.
As for `CCCCCCCOC(=O)c1ccc(O)cc1`, the T/C is 105 % of control under setting [4]; 100 % of control under setting [5]; 99 % of control and 96 % of control under setting [6]; 95 % of control under setting [9].
As to `Cc1ccc(C2=C(C#N)C(c3ccccc3)C(C#N)=C(N)O2)cc1` (stereo unspecified), the T/C is, setting by setting: under setting [8], 97 % of control; under setting [10], 95 % of control.
For `Clc1ccc2c(cnc3ccccc32)n1`, the T/C was 102 % of control (dose: 12.5 mg/kg/injection, schedule: Q04DX002 (ip), vehicle: saline with Tween-80); 102 % of control (dose: 25.0 mg/kg/injection, schedule: Q04DX002 (ip), vehicle: saline with Tween-80); 101 % of control (dose: 50.0 mg/kg/injection, schedule: Q04DX002 (ip), vehicle: saline with Tween-80).
For `O=C(S[Si](c1ccccc1)(c1ccccc1)c1ccccc1)c1ccccc1`, the T/C runs as follows: under setting [11], 102 % of control; under setting [12], 110 % of control.
On to `Cc1c(O)c(=O)ccn1CCCl`, for which the T/C is 104 % of control and 107 % of control (dose: 50.0 mg/kg/injection, schedule: Q01DX005 (ip), vehicle: saline); 106 % of control and 107 % of control (dose: 100.0 mg/kg/injection, schedule: Q01DX005 (ip), vehicle: saline); 109 % of control and 116 % of control (dose: 200.0 mg/kg/injection, schedule: Q01DX005 (ip), vehicle: saline).
As to `Cc1cc2nc3ccc(O)cc3[n+](C)c2cc1N`, the T/C by setting is: under setting [2], 98 % of control and 103 % of control; under setting [3], 100 % of control and 106 % of control; under setting [11], 96 % of control and 97 % of control; under setting [12], 99 % of control and 96 % of control.
On to `Cc1ccccc1N1CCOS(=O)OC(C)C1` (stereo unspecified), for which the T/C (dose: 50.0 mg/kg/injection, schedule: Q01DX005 (ip), vehicle: saline with Tween-80) was 100 % of control; the T/C (dose: 100.0 mg/kg/injection, schedule: Q01DX005 (ip), vehicle: saline with Tween-80) is 104 % of control; the T/C (dose: 200.0 mg/kg/injection, schedule: Q01DX005 (ip), vehicle: saline with Tween-80) was 100 % of control.
